Measurements taken from ChEMBL document CHEMBL3885881, “DrugMatrix”.

Species on record: Rattus norvegicus
Experiment: DrugMatrix - Regimen: Daily Repeat
Type: toxicity, organism-based, Sprague-Dawley
Set-up: regimen Daily Repeat, gender Male, age 6-8 weeks
Details: in vivo, po, route oral GAVAGE, vehicle .5 % CMC; for ABSOLUTE BASOPHIL / ABSOLUTE EOSINOPHIL / ABSOLUTE LYMPHOCYTE / ABSOLUTE MONOCYTE / ABSOLUTE SEGMENTED NEUTROPHIL / BASOPHIL / EOSINOPHIL / ERYTHROCYTE COUNT / HEMATOCRIT / HEMOGLOBIN / LEUKOCYTE COUNT / LYMPHOCYTE / MEAN CORPUSCULAR HEMOGLOBIN / MEAN CORPUSCULAR HEMOGLOBIN CONCENTRATION / MEAN CORPUSCULAR VOLUME / MONOCYTE / NEUTROPHIL / NUCLEATED RED BLOOD CELLS / PLATELET COUNT: tissue Blood; for ALANINE AMINOTRANSFERASE / ALBUMIN / ALKALINE PHOSPHATASE / ASPARTATE AMINOTRANSFERASE / BLOOD UREA NITROGEN / CARBON DIOXIDE / CHLORIDE / CHOLESTEROL / CREATINE PHOSPHOKINASE / CREATININE / GLUCOSE / LACTATE DEHYDROGENASE / LIPASE / PHOSPHORUS / POTASSIUM / SODIUM / TOTAL BILIRUBIN / TOTAL PROTEIN / URIC ACID: tissue Plasma
[1] = 0.1 mg/kg, 120 h, dose level Low, time 5 day
[2] = […], 72 h, dose 1.1 mg/Kg, dose level High, time 3 day
[3] = […], 120 h, dose 1.1 mg/Kg, dose level High, time 5 day

`CCCN1C[C@H](CSC)C[C@@H]2c3cccc4[nH]cc(c34)C[C@H]21` [PERGOLIDE] was tested. Which “ABSOLUTE BASOPHIL” value [1] did it give?
Its value is 0 CELLS/uL.

What about the “ABSOLUTE EOSINOPHIL” value [1] of the same compound?
Its value is 175 CELLS/uL.

What about the “ABSOLUTE LYMPHOCYTE” value [1] of the same compound?
Its value is 12836.67 CELLS/uL.

What about the “ABSOLUTE MONOCYTE” value [1] of the same compound?
The value was 191.67 CELLS/uL.

And the “ABSOLUTE SEGMENTED NEUTROPHIL” value [1]?
The value was 1130 CELLS/uL.

And the BASOPHIL [1]?
The BASOPHIL was 0%.

And the EOSINOPHIL [1]?
Its EOSINOPHIL is 1%.

What about the “ERYTHROCYTE COUNT” value [1] of the same compound?
The value was 6.04 x10E6/uL.

What about the HEMATOCRIT [1] of the same compound?
Its HEMATOCRIT is 38.1%.

What about the HEMOGLOBIN [1] of the same compound?
The HEMOGLOBIN was 14.47 G/DL.

What about the “LEUKOCYTE COUNT” value [1] of the same compound?
The value was 14.33 x10E3/uL.

And the LYMPHOCYTE [1]?
Its LYMPHOCYTE is 89.67%.

And the “MEAN CORPUSCULAR HEMOGLOBIN” value [1]?
The value was 24.1 pg.

And the “MEAN CORPUSCULAR HEMOGLOBIN CONCENTRATION” value [1]?
The value was 38.07 G/DL.

What about the “MEAN CORPUSCULAR VOLUME” value [1] of the same compound?
The value was 63.27 fL.

What about the MONOCYTE [1] of the same compound?
The MONOCYTE was 1.33%.

And the NEUTROPHIL [1]?
Its NEUTROPHIL is 8%.

And the “NUCLEATED RED BLOOD CELLS” value [1]?
The value was 0 /100WBC.

What about the “PLATELET COUNT” value [1] of the same compound?
Its value is 1209 x10E3/uL.

What about the “ALANINE AMINOTRANSFERASE” value [1] of the same compound?
Its value is 50.33 u/L.

What about the ALBUMIN [1] of the same compound?
Its ALBUMIN is 4.13 G/DL.

What about the “ALKALINE PHOSPHATASE” value [1] of the same compound?
Its value is 348 u/L.

What about the “ASPARTATE AMINOTRANSFERASE” value [1] of the same compound?
Its value is 111.67 u/L.

And the “BLOOD UREA NITROGEN” value [1]?
Its value is 19.33 mg/dL.

What about the “CARBON DIOXIDE” value [1] of the same compound?
The value was 24 mmol/L.

And the CHLORIDE [1]?
The CHLORIDE was 107 MEQ/L.

What about the CHOLESTEROL [1] of the same compound?
Its CHOLESTEROL is 76.67 mg/dL.

What about the “CREATINE PHOSPHOKINASE” value [1] of the same compound?
The value was 1319 u/L.

And the CREATININE [1]?
The CREATININE was 0.21 mg/dL.

What about the GLUCOSE [1] of the same compound?
Its GLUCOSE is 156 mg/dL.

What about the “LACTATE DEHYDROGENASE” value [1] of the same compound?
Its value is 398.67 u/L.

What about the LIPASE [1] of the same compound?
Its LIPASE is 10 u/L.

And the PHOSPHORUS [1]?
The PHOSPHORUS was 13.17 mg/dL.

What about the POTASSIUM [1] of the same compound?
The POTASSIUM was 6.18 MEQ/L.

What about the SODIUM [1] of the same compound?
The SODIUM was 145.93 MEQ/L.

What about the “TOTAL BILIRUBIN” value [1] of the same compound?
The value was 0.2 mg/dL.

What about the “TOTAL PROTEIN” value [1] of the same compound?
The value was 6.23 G/DL.

And the “URIC ACID” value [1]?
Its value is 2.13 mg/dL.

And the “ABSOLUTE BASOPHIL” value [2]?
The value was 0 CELLS/uL.

And the “ABSOLUTE EOSINOPHIL” value [2]?
The value was 0 CELLS/uL.

What about the “ABSOLUTE LYMPHOCYTE” value [2] of the same compound?
The value was 11487 CELLS/uL.

And the “ABSOLUTE MONOCYTE” value [2]?
The value was 388 CELLS/uL.

What about the “ABSOLUTE SEGMENTED NEUTROPHIL” value [2] of the same compound?
The value was 1058.33 CELLS/uL.

What about the BASOPHIL [2] of the same compound?
The BASOPHIL was 0%.

And the EOSINOPHIL [2]?
Its EOSINOPHIL is 0%.

And the “ERYTHROCYTE COUNT” value [2]?
Its value is 5.69 x10E6/uL.

What about the HEMATOCRIT [2] of the same compound?
The HEMATOCRIT was 36.2%.

What about the HEMOGLOBIN [2] of the same compound?
Its HEMOGLOBIN is 13.43 G/DL.

What about the “LEUKOCYTE COUNT” value [2] of the same compound?
Its value is 12.93 x10E3/uL.

And the LYMPHOCYTE [2]?
The LYMPHOCYTE was 88.67%.

What about the “MEAN CORPUSCULAR HEMOGLOBIN” value [2] of the same compound?
The value was 23.63 pg.

And the “MEAN CORPUSCULAR HEMOGLOBIN CONCENTRATION” value [2]?
The value was 37.13 G/DL.

What about the “MEAN CORPUSCULAR VOLUME” value [2] of the same compound?
Its value is 63.6 fL.

And the MONOCYTE [2]?
Its MONOCYTE is 3%.

What about the NEUTROPHIL [2] of the same compound?
Its NEUTROPHIL is 8.33%.

What about the “NUCLEATED RED BLOOD CELLS” value [2] of the same compound?
Its value is 0 /100WBC.

And the “PLATELET COUNT” value [2]?
Its value is 1255.67 x10E3/uL.

And the “ALANINE AMINOTRANSFERASE” value [2]?
The value was 71 u/L.

What about the ALBUMIN [2] of the same compound?
Its ALBUMIN is 4.2 G/DL.

And the “ALKALINE PHOSPHATASE” value [2]?
The value was 385.33 u/L.

What about the “ASPARTATE AMINOTRANSFERASE” value [2] of the same compound?
The value was 116 u/L.

And the “BLOOD UREA NITROGEN” value [2]?
The value was 16 mg/dL.

What about the “CARBON DIOXIDE” value [2] of the same compound?
Its value is 24.67 mmol/L.

What about the CHLORIDE [2] of the same compound?
Its CHLORIDE is 104.67 MEQ/L.

What about the CHOLESTEROL [2] of the same compound?
Its CHOLESTEROL is 68 mg/dL.

And the “CREATINE PHOSPHOKINASE” value [2]?
The value was 406 u/L.

And the CREATININE [2]?
Its CREATININE is 0.19 mg/dL.

And the GLUCOSE [2]?
The GLUCOSE was 157 mg/dL.

And the “LACTATE DEHYDROGENASE” value [2]?
Its value is 402.67 u/L.

And the LIPASE [2]?
Its LIPASE is 10 u/L.

And the PHOSPHORUS [2]?
Its PHOSPHORUS is 12.03 mg/dL.

What about the POTASSIUM [2] of the same compound?
The POTASSIUM was 6.59 MEQ/L.

And the SODIUM [2]?
The SODIUM was 145.53 MEQ/L.

What about the “TOTAL BILIRUBIN” value [2] of the same compound?
The value was 0.2 mg/dL.

What about the “TOTAL PROTEIN” value [2] of the same compound?
The value was 5.67 G/DL.

And the “URIC ACID” value [2]?
The value was 1.73 mg/dL.

And the “ABSOLUTE BASOPHIL” value [3]?
The value was 0 CELLS/uL.

What about the “ABSOLUTE EOSINOPHIL” value [3] of the same compound?
The value was 64.33 CELLS/uL.

And the “ABSOLUTE LYMPHOCYTE” value [3]?
The value was 14339 CELLS/uL.

And the “ABSOLUTE MONOCYTE” value [3]?
Its value is 275 CELLS/uL.

What about the “ABSOLUTE SEGMENTED NEUTROPHIL” value [3] of the same compound?
Its value is 888.33 CELLS/uL.

What about the BASOPHIL [3] of the same compound?
The BASOPHIL was 0%.

And the EOSINOPHIL [3]?
Its EOSINOPHIL is 0.33%.

And the “ERYTHROCYTE COUNT” value [3]?
Its value is 6.31 x10E6/uL.

What about the HEMATOCRIT [3] of the same compound?
The HEMATOCRIT was 40.47%.

What about the HEMOGLOBIN [3] of the same compound?
The HEMOGLOBIN was 15.03 G/DL.

And the “LEUKOCYTE COUNT” value [3]?
Its value is 15.57 x10E3/uL.

And the LYMPHOCYTE [3]?
Its LYMPHOCYTE is 92.33%.

And the “MEAN CORPUSCULAR HEMOGLOBIN” value [3]?
Its value is 23.77 pg.

And the “MEAN CORPUSCULAR HEMOGLOBIN CONCENTRATION” value [3]?
Its value is 37.23 G/DL.

What about the “MEAN CORPUSCULAR VOLUME” value [3] of the same compound?
The value was 63.93 fL.

What about the MONOCYTE [3] of the same compound?
The MONOCYTE was 1.67%.

What about the NEUTROPHIL [3] of the same compound?
Its NEUTROPHIL is 5.67%.

And the “NUCLEATED RED BLOOD CELLS” value [3]?
The value was 0 /100WBC.

What about the “PLATELET COUNT” value [3] of the same compound?
The value was 990.67 x10E3/uL.

And the “ALANINE AMINOTRANSFERASE” value [3]?
Its value is 44.33 u/L.

And the ALBUMIN [3]?
Its ALBUMIN is 4.53 G/DL.

What about the “ALKALINE PHOSPHATASE” value [3] of the same compound?
Its value is 385.67 u/L.

What about the “ASPARTATE AMINOTRANSFERASE” value [3] of the same compound?
Its value is 82 u/L.

What about the “BLOOD UREA NITROGEN” value [3] of the same compound?
Its value is 17.33 mg/dL.

And the “CARBON DIOXIDE” value [3]?
The value was 27.33 mmol/L.

And the CHLORIDE [3]?
Its CHLORIDE is 108.33 MEQ/L.

And the CHOLESTEROL [3]?
Its CHOLESTEROL is 76.67 mg/dL.

What about the “CREATINE PHOSPHOKINASE” value [3] of the same compound?
The value was 501.67 u/L.

And the CREATININE [3]?
Its CREATININE is 0.22 mg/dL.

What about the GLUCOSE [3] of the same compound?
The GLUCOSE was 154 mg/dL.

What about the “LACTATE DEHYDROGENASE” value [3] of the same compound?
The value was 206.33 u/L.

What about the LIPASE [3] of the same compound?
The LIPASE was 9.33 u/L.

And the PHOSPHORUS [3]?
The PHOSPHORUS was 11.87 mg/dL.

And the POTASSIUM [3]?
The POTASSIUM was 6.29 MEQ/L.

What about the SODIUM [3] of the same compound?
Its SODIUM is 147.9 MEQ/L.

And the “TOTAL BILIRUBIN” value [3]?
The value was 0.23 mg/dL.

What about the “TOTAL PROTEIN” value [3] of the same compound?
The value was 6.37 G/DL.

And the “URIC ACID” value [3]?
The value was 1.63 mg/dL.
